Assays:
[1] = tested on: form-deprivation myopia (FDM) in chicks; test: Unilateral form-deprivation myopia (FDM) in chicks, four intravitreal injections every alternate day, 7-day diffuser lens treatment; assay type: in vivo, White Leghorn chicks (Gallus gallus); conditions: for axial length, mean interocular difference ± SD / refractive error (myopic progression), mean interocular difference ± SD / increase in choroidal thickness compared to the vehicle group / choroidal thickness, mean interocular difference ± SD: after 7-day treatment; for axial length, mean interocular difference ± SD: vehicle 0.75±0.19 mm; for refractive error (myopic progression), mean interocular difference ± SD: vehicle −10.0±2.56 D; for choroidal thickness, mean interocular difference ± SD: vehicle 43.02±8.87 μm
Experimental: XMU-MP-1, known for its reversible and selective inhibition of MST1/2 (upstream to YAP/TAZ), leading to a significant increase in the activity of the Hippo pathway effector YAP, undergoes testing in a dose-dependent manner for its impact on form-deprivation myopia (FDM) in chicks.
White Leghorn chicks (Gallus gallus) from specific pathogen-free eggs (SPF, Jinan, China) are raised in standard cages with adequate food and water, maintaining a temperature of 25° C. and a 12 h:12 h light/dark cycle. The experimental period spans from postnatal 7 days (PN 7) to 14 days (PN 14). A unilateral FDM model is established using a published protocol, involving four intravitreal injections performed every alternate day. Following the first injection, diffuser lenses are attached to the right eye, with lenses covering only the XMU-MP-1 injected eye (unilateral FDM). XMU-MP- 1, dissolved in 10% DMSO with 90% Corn oil, is injected monocularly using a 0.3 mm (30 G)×8 mm needle into the vitreous through the skin, sclera, choroid, and retina close to the margin of the upper orbit. Contralateral eyes receive no lens treatment. Four concentrations of XMU-MP-1 (0.02, 0.2, 2, and 20 mmol/L) are selected for evaluation.
Animals are randomly assigned to five groups, encompassing the FDM with vehicle treatment group (vehicle group, 10% DMSO+90% Corn oil, n=14), FDM with 0.02 mmol/L XMU-MP-1 treatment group (XMU-MP-1, 0.02 mmol/L group, n=5), FDM with 0.2 mmol/L XMU-MP-1 treatment group (XMU-MP-1, 0.2 mmol/L group, n=5), FDM with 2 mmol/L XMU-MP-1 treatment group (XMU-MP-1, 2 mmol/L group, n=13), and FDM with 20 mmol/L XMU-MP-1 treatment group (XMU-MP-1, 20 mmol/L group, n=14).
Refractive errors are assessed using a streak retinoscope, and ocular parameters are measured with a high-frequency A-scan ultrasound system equipped with a 30 MHz transducer (Panametrics, Inc., Waltham, MA) before and after treatment. The spherical equivalent (S.E.) is derived from the refractive status (S.E.=spherical power+½ cylindrical power), and axial length is defined from the front of the cornea to the back of the vitreous chamber.
For statistical analysis, after the 7-day lens treatment period, interocular differences (the difference between the diffuser-treated eyes and the contralateral fellow eyes) are calculated for six ocular parameters (refractive error, anterior chamber depth, lens thickness, vitreous chamber depth (FIG. 4B), axial length, and choroidal thickness). Mean interocular differences±SD are presented, and the significance of the dose-effect is analyzed using ANOVA. Post hoc testing (Dunnett's method) is employed where appropriate, with significance levels denoted as follows: ns, not significant; *, P<0.05; **, P<0.01; ****, P<0.0001.

[2] = Signs of toxicity in animal models; assay type: in vivo
[3] = 2 mmol/L XMU-MP-1 intravitreal, n=13, P<0.001
[4] = 20 mmol/L XMU-MP-1 intravitreal, n=14, P<0.0001

## CN1C(=O)c2sccc2N(C)c2nc(Nc3ccc(S(N)(=O)=O)cc3)ncc21 [XMU-MP-1]
[1]; 0.02 mmol/L XMU-MP-1 intravitreal, n=5
  axial length, mean interocular difference ± SD: 0.73±0.13 mm
[1]; 0.2 mmol/L XMU-MP-1 intravitreal, n=5, P<0.001
  axial length, mean interocular difference ± SD: 0.41±0.24 mm
[1]; 0.2 mmol/L XMU-MP-1 intravitreal, n=5, P<0.01
  refractive error (myopic progression), mean interocular difference ± SD: −6.05±2.97 D
[1]; 0.2 mmol/L group
  inhibition of myopia, based on refractive error and axial length data: about 40%
[1]; 2 mmol/L XMU-MP-1 intravitreal
  increase in choroidal thickness compared to the vehicle group: about 50%
[1]; [3]
  axial length, mean interocular difference ± SD: 0.36±0.20 mm
  choroidal thickness, mean interocular difference ± SD: 22.07±15.13 μm
[1]; 2 mmol/L XMU-MP-1 intravitreal, n=13, P<0.0001
  refractive error (myopic progression), mean interocular difference ± SD: −4.69±2.75 D
[1]; 2 mmol/L group
  inhibition of myopia, based on refractive error and axial length data: about 53%
[1]; 20 mmol/L XMU-MP-1 intravitreal
  increase in choroidal thickness compared to the vehicle group: ~70%
[1]; [4]
  axial length, mean interocular difference ± SD: 0.27±0.22 mm
  choroidal thickness, mean interocular difference ± SD: 12.83±17.96 μm
  refractive error (myopic progression), mean interocular difference ± SD: −3.51±2.89 D
[1]; highest dose tested (200 nmol)
  suppression of myopia development: about 65%
[1]; intravitreal injection
  inhibition of lens-induced myopia: robustly inhibits lens-induced myopia
[1]; intravitreal injection, 0.02-20 mmol/L, ANOVA significant dose-response effect (p<0.0001)
  suppression of myopia progression, dose dependence: can suppress myopia progression through intravitreal injection in a dose-dependent manner
[2]
  signs of toxicity: no discernible signs of toxicity

— patent publication US20260165953A1, “THE HIPPO PATHWAY AS A PHARMACOLOGIC TARGET FOR TREATING REFRACTIVE DISORDERS” (Centre for Eye and Vision Research Limited, priority 2022, published 2026)
